{"source": "ChEMBL document CHEMBL5226289", "about": "“Discovery of natural anti-inflammatory alkaloids: Potential leads for the drug discovery for the treatment of inflammation” (Eur J Med Chem, 2021)", "key": {"[1]": {"test_system": "RAW264.7", "experiment": "Antiinflammatory activity against LPS-stimulated mouse RAW264.7 cells assessed as reduction in iNOS protein expression at 10 uM relative to control", "format": "functional", "design": "scale not given: the % may be the effect or the level left"}, "[2]": {"test_system": "RAW264.7", "experiment": "Antiinflammatory activity against LPS-stimulated mouse RAW264.7 cells assessed as reduction in COX-2 protein expression at 10 uM relative to control", "format": "functional", "design": "scale not given: the % may be the effect or the level left"}, "[3]": {"test_system": "Mus musculus", "experiment": "Prevention of LPS-induced mortality in C57BL/6 mouse model at 30 mg/kg, ip measured after 5 days relative to control", "format": "functional", "conditions": "time 5 day"}, "[4]": {"test_system": "Rattus norvegicus", "experiment": "Antiinflammatory activity in Wistar rat assessed as inhibition of carrageenan-induced hind paw edema at 50 mg/kg, po pre-treated for 1 hrs followed by carrageenan administration and measured after 3 hrs by plethysmometer relative to control", "format": "functional", "conditions": "time 4 hrs"}, "[5]": {"experiment": "Inhibition of TNF-alpha production in LPS-induced human U-937 cells preincubated with compound for 30 mins followed by LPS induction and measured after 4 hrs", "format": "functional, cell-based"}, "[6]": {"test_system": "RAW264.7", "experiment": "Inhibition of NO production in LPS-stimulated mouse RAW264.7 cells at 100 uM incubated for 18 hrs by Griess reagent-based assay", "format": "functional"}, "[7]": {"target": "Nuclear factor NF-kappa-B complex (Homo sapiens) (UniProt Q00653+P19838+Q04206)", "sequence (P19838 whole entry, looked up)": "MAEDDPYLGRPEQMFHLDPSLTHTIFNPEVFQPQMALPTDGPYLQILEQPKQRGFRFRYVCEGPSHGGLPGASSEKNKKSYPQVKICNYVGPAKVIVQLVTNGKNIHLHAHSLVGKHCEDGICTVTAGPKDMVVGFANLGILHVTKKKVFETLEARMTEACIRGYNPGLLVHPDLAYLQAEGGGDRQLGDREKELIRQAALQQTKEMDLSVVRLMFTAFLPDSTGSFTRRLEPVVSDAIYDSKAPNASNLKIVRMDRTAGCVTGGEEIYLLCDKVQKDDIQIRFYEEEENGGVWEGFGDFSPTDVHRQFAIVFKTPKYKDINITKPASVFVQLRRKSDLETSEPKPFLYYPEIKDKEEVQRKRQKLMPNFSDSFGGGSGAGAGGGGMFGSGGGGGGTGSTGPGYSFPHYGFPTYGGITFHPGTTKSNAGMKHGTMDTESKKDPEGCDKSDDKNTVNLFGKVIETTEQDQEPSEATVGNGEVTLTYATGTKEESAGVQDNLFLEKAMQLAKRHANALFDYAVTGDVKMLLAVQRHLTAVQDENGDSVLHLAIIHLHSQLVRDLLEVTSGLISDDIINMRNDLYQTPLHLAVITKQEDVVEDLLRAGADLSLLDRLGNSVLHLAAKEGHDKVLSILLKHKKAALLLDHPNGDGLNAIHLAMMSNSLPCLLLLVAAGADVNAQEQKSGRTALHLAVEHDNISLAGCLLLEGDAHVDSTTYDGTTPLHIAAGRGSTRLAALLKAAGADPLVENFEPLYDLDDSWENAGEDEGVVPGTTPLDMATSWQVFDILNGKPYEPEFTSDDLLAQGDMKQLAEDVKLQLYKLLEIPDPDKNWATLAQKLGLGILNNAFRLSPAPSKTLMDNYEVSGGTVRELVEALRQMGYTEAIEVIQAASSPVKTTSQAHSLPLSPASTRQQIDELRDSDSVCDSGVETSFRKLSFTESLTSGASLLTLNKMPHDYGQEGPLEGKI", "sequence (Q00653 whole entry, looked up)": "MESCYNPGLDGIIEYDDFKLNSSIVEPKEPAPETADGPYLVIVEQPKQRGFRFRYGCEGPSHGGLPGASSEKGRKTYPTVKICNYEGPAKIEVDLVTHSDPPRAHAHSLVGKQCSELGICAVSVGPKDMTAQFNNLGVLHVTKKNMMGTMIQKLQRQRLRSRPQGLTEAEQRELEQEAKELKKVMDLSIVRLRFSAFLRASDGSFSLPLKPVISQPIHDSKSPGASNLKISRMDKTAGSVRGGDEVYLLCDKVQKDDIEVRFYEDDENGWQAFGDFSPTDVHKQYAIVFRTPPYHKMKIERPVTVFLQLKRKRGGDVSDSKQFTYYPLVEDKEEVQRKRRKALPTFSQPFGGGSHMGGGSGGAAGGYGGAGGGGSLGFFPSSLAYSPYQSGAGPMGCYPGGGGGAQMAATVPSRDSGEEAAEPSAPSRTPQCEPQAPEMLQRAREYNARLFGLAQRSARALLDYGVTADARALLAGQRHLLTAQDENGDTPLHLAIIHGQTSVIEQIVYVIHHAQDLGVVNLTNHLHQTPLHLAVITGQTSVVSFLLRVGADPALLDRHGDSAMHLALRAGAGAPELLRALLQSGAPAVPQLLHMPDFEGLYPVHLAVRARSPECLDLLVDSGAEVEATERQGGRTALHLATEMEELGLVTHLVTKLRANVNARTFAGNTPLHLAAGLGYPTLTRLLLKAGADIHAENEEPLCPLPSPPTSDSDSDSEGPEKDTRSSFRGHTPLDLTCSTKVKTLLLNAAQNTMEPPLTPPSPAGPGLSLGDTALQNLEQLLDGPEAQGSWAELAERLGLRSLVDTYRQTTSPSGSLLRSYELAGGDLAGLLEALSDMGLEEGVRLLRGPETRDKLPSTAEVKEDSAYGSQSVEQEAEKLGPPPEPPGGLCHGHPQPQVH", "sequence (Q04206 whole entry, looked up)": "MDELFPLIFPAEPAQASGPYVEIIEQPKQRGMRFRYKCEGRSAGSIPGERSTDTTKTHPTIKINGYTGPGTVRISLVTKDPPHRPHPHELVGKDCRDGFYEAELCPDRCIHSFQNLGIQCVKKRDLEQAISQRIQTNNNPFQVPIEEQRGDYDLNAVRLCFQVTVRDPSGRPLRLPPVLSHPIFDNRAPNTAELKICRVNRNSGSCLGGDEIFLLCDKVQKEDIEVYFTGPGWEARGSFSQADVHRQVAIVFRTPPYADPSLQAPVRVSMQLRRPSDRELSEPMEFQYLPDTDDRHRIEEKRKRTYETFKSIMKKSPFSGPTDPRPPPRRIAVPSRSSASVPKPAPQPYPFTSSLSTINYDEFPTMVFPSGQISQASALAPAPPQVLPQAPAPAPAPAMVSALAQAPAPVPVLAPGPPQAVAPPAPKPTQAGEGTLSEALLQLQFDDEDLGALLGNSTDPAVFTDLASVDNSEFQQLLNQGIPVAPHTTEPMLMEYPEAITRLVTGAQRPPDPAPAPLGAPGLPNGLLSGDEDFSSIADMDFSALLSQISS", "experiment": "Inhibition of TNF-alpha induced NFkappaB activation in HEK293 cells at 100 uM pretreated for 15 mins followed by stimulation with human recombinant TNFalpha and measured after 6 hrs by luminescence based assay relative to control", "format": "cell-based", "conditions": "time 375.0 min"}, "[8]": {"test_system": "Mus musculus", "experiment": "Antiinflammatory activity in mouse assessed as inhibition of xylene-induced ear edema at 5 mg/kg, IG pre-treated for 30 mins followed by xylene administration and measured after 1 hrs relative to control", "format": "functional", "conditions": "po, time 1.5 hrs"}, "[9]": {"experiment": "Inhibition of LPS-induced NO production in mouse BV-2 cells […]", "format": "functional, cell-based"}, "[10]": {"test_system": "Mus musculus", "experiment": "Antiinflammatory activity against capsaicin-induced ear edema Swiss albino mouse model assessed as inhibition of plasma extravasation at 100 umol/kg, po pre-treated with compound for 40 mins followed by capsaicin stimulation and measured after 30 mins relative to control", "format": "functional"}, "[11]": {"test_system": "Mus musculus", "experiment": "Antiinflammatory activity in carrageenan-induced peritoneal Swiss albino mouse model assessed as decrease in number of leukocyte cells at 100 umol/kg, po pre-treated for 30 mins followed by carrageenan induction and measured after 4 hrs relative to control", "format": "functional", "design": "scale not given: the % may be the effect or the level left", "conditions": "dose 100 µmol/kg, time 4.5 hrs"}, "[12]": {"test_system": "RAW264.7", "experiment": "Inhibition of NO production in LPS-stimulated mouse RAW264.7 cells preincubated with compound for 3 hrs followed by LPS stimulation and measured after 20 hrs by Griess reagent-based assay", "format": "functional, cell-based"}, "[13]": {"experiment": "Antiinflammatory activity in rat polymorphonuclear leucocyte cells assessed as inhibition of PAF-induced beta-glucuronidase release at 10 uM preincubated for 20 mins followed by PAF addition relative to control", "format": "functional"}, "[14]": {"test_system": "J774.1", "experiment": "Inhibition of NO production in LPS-stimulated mouse J774.1 cells", "format": "functional, cell-based"}, "[15]": {"test_system": "RAW264.7", "experiment": "Antiinflammatory activity against mouse RAW264.7 cells assessed as inhibition of cell growth", "format": "functional, cell-based"}, "[16]": {"experiment": "Inhibition of NO production in LPS-induced mouse N9 cells incubated for 48 hrs by griess reagent based assay", "format": "functional, cell-based", "conditions": "N9, 48 h"}, "[17]": {"test_system": "RAW264.7", "experiment": "Inhibition of NO production in LPS-stimulated mouse RAW264.7 cells preincubated with compound for 30 mins followed by LPS stimulation and measured after 24 hrs by Griess reagent-based assay", "format": "functional, cell-based"}}}
{"smiles": "CSc1[nH]c2cc(Br)c(Br)c(Br)c2c1SC", "values": [{"measurement": "Activity", "setting": "[1]", "value": 2.8, "unit": "%"}, {"measurement": "Activity", "setting": "[2]", "value": 1.6, "unit": "%"}]}
{"smiles": "COc1ccc2c(c1)[nH]c1c(/C=C/C(=O)O)nccc12", "values": [{"measurement": "Activity", "setting": "[3]", "value": 12.5, "unit": "%"}]}
{"smiles": "COc1ccc2c(OC)c3ccoc3nc2c1", "note": "[EVOLITRINE]", "values": [{"measurement": "inhibition in vivo at 50 mg/kg", "setting": "[4]", "value": 62, "unit": "%"}]}
{"smiles": "CCCCCCCCCC(=O)C/C(=C\\c1cc(CCC)ncc1C(=O)OC)C(C)=O", "values": [{"measurement": "IC50", "setting": "[5]", "value": 1.52, "unit": "µM"}]}
{"smiles": "COc1cc2c(cc1O)-c1cc3ccc(OC)c(OC)c3c[n+]1CC2", "note": "[COLUMBAMINE]", "values": [{"measurement": "inhibition at 100 µM", "setting": "[6]", "value": 88.1, "unit": "%"}, {"measurement": "inhibition", "setting": "[7]", "value": 63.2, "unit": "%"}]}
{"smiles": "COC(=O)C1=C2Nc3c(O)cccc3[C@@]23CCN2C[C@@H]([C@H](C)O)[C@@H]1C[C@H]23", "note": "[SCHOLARICINE]", "values": [{"measurement": "inhibition in vivo at 5 mg/kg", "setting": "[8]", "value": 42, "unit": "%"}]}
{"smiles": "CC(C)=CCOc1ccc(CCNC(=O)c2ccccc2)cc1", "values": [{"measurement": "IC50", "setting": "[9]", "value": 4.9, "unit": "µM"}]}
{"smiles": "COC(=O)/C1=C/c2c([nH]c3ccccc23)/C(C(=O)OC)=C\\c2c1[nH]c1ccccc21", "note": "[CAULERPIN]", "values": [{"measurement": "inhibition in vivo at 100 µmol/kg", "setting": "[10]", "value": 55.8, "unit": "%"}, {"measurement": "Activity", "setting": "[11]", "value": 48.3, "unit": "%"}]}
{"smiles": "C=C1C=C2C=C[C@H](OC)C[C@@]23c2cc4c(cc2[C@@H](O)CN13)OCO4", "values": [{"measurement": "IC50", "setting": "[12]", "value": 3.4, "unit": "µg/mL"}]}
{"smiles": "COC1O[C@@H]([C@@H]2c3cc4c(cc3CCN2C)OCO4)c2ccc3c(c21)OCO3", "note": "(stereo partly drawn)", "values": [{"measurement": "inhibition at 10 µM", "setting": "[13]", "value": 35.6, "unit": "%"}]}
{"smiles": "COC(=O)[C@@]1(O)C2=Nc3c(O)cccc3[C@@]23C[C@H]2C[C@]4(C(C)=O)ON2[C@H]3C[C@H]14", "values": [{"measurement": "IC50", "setting": "[14]", "value": 49.2, "unit": "µM"}, {"measurement": "IC50", "setting": "[15]", "value": 39.6, "unit": "µM"}]}
{"smiles": "COC1O[C@H]([C@@H]2c3cc4c(cc3CCN2C)OCO4)c2ccc3c(c21)OCO3", "note": "(stereo partly drawn)", "values": [{"measurement": "inhibition at 10 µM", "setting": "[13]", "value": 32.4, "unit": "%"}]}
{"smiles": "C=C[C@@H]1[C@@H](O[C@@H]2O[C@H](CO)[C@@H](O)[C@H](O)[C@H]2O)OC=C(C(=O)OC)[C@@H]1C[C@@H]1NCCc2c1[nH]c1ccccc21", "values": [{"measurement": "IC50", "setting": "[16]", "value": 8.3, "unit": "µM"}]}
{"smiles": "O=C(C1C=CC(c2ccc3c(c2)OCO3)C(/C=C/c2ccc3c(c2)OCO3)C1C(=O)N1CCCCC1)N1CCCCC1", "note": "(stereo not drawn)", "values": [{"measurement": "IC50", "setting": "[17]", "value": 6.8, "unit": "µM"}]}
